Laboratory results published in patent publication US20240197678A1, “INHIBITORS OF THE PEPTIDYL-PROLYL CIS/TRANS ISOMERASE (PIN1) AND USES THEREOF” (DANA-FARBER CANCER INSTITUTE, INC., priority 2021, published 2024).
“Also recorded” adds a separate entry of the source.

Assays:
Pin1 [1] = molecular target: T1, Pin1 (Homo sapiens, UniProt Q13526); experiment: Fluorescence polarization (FP) assay, binding to Pin1; conditions: for Ki: 1 h incubation with Pin1, read-out: Ki (binding affinity to Pin1, Kenakin Ki from FP EC50)
T1 sequence (Q13526 whole entry): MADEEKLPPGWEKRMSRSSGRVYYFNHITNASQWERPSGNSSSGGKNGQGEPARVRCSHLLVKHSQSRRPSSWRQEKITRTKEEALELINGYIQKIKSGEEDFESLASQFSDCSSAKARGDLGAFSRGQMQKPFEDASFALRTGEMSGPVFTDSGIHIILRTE
Procedure: FIG. 3 is a fluorescence polarization readout following 1 h incubation of the indicated compounds with Pin1. Data points are plotted as the average of n=3 independent samples+SEM. Binding affinity to Pin1 was determined using a fluorescence polarization assay. Ki values obtained from the FP assay results were derived from the Kenakin Ki equation: Kenakin Ki=(Lb)(EC50)(Kd)/(Lo)(Ro)+Lb(Ro−Lo+Lb−Kd), where Kd [M]: Kd of the probe, EC50 [M]: obtained from FP assay, total tracer Lo [M]: probe concentration in FP, bound tracer Lb [M]: 85% of probe concentration binds to target protein, total receptor Ro [M]: Pin1 concentration in the FP assay, as described (Auld et al. Receptor binding assays for HTS and drug discovery. in Assay Guidance Manual eds. Sittampalam, G.S., et al. Eli Lilly & Company and the National Center for Advancing Translational Sciences, 2004).

Pin1 [2] = molecular target: T1, Pin1; experiment: Molt4 cells competition with Pin1-3 desthiobiotin probe, streptavidin pull-down and immunoblot (Pin1 engagement); assay type: cell-based; set-up: endogenous in cells; host or cells: Molt4; conditions: Molt4 cells treated 5 h, streptavidin pull-down, immunoblot
Procedure: FIG. 4 is an immunoblot displaying the result of Molt4 cells treated in a competition format with the indicated concentrations of Pin1-3, Pin1-3 P1, and Pin1-3 P2 for 5 h, followed by cell lysis, incubation with TM-03-163 (Pin1-3 desthiobiotin), streptavidin pull-down, and immunoblot analysis. […] Molt4 cells were treated in a competition format with Pin1-3, Pin1-3 P1, and Pin1-3 P2 for 5 h, followed by cell lysis, incubation with […] (Pin1-3 desthiobiotin), followed by streptavidin pulldown and immunoblot analysis.

Row | Ki (Pin1 [1]) | Ki (binding affinity to Pin1, Kenakin Ki from FP EC50) (Pin1 [1]; 1 h incubation with Pin1) | Compound | Engagement of Pin1 in Molt4 cells (Pin1 [2])
1 | ~0.286 µM |  | CC(C)(C)CN(C(=O)CCl)C1CCS(=O)(=O)C1 (racemic) [Pin1-3, reference compound] | 
2 | ~0.07 µM |  | CC(C)(C)CN(C(=O)CCl)[C@@H]1CCS(=O)(=O)C1 (single isomer, unassigned) [Pin1-3 P1] | engages Pin1 more potently than Pin1-3
3 |  | unable to be determined | CC(C)(C)CN(C(=O)CCl)[C@H]1CCS(=O)(=O)C1 [Pin1-3 P2, (S)-2-chloro-N-(1,1-dioxidotetrahydrothiophen-3-yl)-N-neopentylacetamide] | did not display engagement; also recorded: no engagement
